The source of these data is patent publication US20200239530A1, “COMPOUNDS AND METHODS OF MODULATING PROTEIN DEGRADATION” (Vividion Therapeutics, Inc., priority 2017, published 2020).

Common to all, as to test: Cysteine liganding, probe competition
What all share (type): binding

The target of one assay is T1, UniProt Q9NX47 (Homo sapiens, UniProt Q9NX47).
T1 construct: Cells were resuspended in cold PBS on ice and sonicated with a probe sonicator to achieve lysis; endogenous in cells
The text has this: (§1) The following 96-well sample prep protocol was used for sample preparation.

For another assay, the target named is T2, UniProt Q8TEL6 (Homo sapiens, UniProt Q8TEL6).
T2 construct: 200 μL of lysate containing 5 mg/ml proteome was treated with 2 μL of 100× compound stock; endogenous in cells
T2 sequence (Q8TEL6 1-797): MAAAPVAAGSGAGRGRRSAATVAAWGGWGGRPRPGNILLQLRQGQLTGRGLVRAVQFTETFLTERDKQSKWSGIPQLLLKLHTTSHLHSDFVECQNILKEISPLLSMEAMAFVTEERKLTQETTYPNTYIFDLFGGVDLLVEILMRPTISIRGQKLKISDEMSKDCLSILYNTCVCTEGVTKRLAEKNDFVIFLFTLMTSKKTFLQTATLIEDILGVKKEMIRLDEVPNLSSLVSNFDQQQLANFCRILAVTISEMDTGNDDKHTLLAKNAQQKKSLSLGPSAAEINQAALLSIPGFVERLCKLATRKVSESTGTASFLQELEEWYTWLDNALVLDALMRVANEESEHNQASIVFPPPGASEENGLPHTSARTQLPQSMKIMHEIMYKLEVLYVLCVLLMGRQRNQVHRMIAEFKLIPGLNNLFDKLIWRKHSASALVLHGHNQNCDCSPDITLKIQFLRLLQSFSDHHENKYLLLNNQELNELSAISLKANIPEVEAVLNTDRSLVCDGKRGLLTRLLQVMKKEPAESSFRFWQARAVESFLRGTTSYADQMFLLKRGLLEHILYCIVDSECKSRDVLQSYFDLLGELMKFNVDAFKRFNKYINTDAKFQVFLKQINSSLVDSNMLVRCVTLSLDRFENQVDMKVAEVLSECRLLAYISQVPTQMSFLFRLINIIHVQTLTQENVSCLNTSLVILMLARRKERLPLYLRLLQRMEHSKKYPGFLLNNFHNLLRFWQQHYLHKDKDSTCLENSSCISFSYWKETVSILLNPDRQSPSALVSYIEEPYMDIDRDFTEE
Description: as §1

Another assay addresses T3, UniProt Q96DX4 (Homo sapiens, UniProt Q96DX4).
T3 construct: 200 μL of lysate containing 5 mg/ml proteome was treated with 2 μL of 100× compound stock; endogenous in cells
Conditions: read-out: percent_inhibition.
Description: as §1

A further assay deals with T4, UniProt P63208 (Homo sapiens, UniProt P63208).
T4 construct: 200 μL of lysate containing 5 mg/ml proteome was treated with 2 μL of 100× compound stock; endogenous in cells
T4 sequence (P63208 whole entry, change not shown): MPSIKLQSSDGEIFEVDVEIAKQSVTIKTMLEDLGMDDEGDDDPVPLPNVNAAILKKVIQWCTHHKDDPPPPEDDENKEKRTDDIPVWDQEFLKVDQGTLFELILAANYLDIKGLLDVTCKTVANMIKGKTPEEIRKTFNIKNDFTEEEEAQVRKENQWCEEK
Conditions: for percent_inhibition: 100 uM; for inhibition at 100 µM: read-out: percent_inhibition.
Description: as §1

In the next assay the target is T5, UniProt Q495X7 (Homo sapiens, UniProt Q495X7).
T5 construct: 200 μL of lysate containing 5 mg/ml proteome was treated with 2 μL of 100× compound stock; endogenous in cells
T5 sequence (Q495X7 1-471): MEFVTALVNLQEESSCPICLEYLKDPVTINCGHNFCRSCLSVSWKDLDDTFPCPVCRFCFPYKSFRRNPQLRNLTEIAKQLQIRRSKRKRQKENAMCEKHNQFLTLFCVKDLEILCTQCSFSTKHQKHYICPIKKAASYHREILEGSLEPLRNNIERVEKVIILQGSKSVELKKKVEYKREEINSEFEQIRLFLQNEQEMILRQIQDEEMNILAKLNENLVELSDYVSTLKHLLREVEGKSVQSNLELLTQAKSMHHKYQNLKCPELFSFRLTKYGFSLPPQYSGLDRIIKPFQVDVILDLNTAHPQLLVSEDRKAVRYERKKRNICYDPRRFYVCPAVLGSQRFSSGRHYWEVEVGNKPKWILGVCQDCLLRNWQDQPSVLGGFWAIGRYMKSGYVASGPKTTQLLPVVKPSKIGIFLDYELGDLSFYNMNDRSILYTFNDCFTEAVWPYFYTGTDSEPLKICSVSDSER
Description: as §1

For another assay, the target named is T6, UniProt O43791 (Homo sapiens, UniProt O43791).
T6 construct: 200 μL of lysate containing 5 mg/ml proteome was treated with 2 μL of 100× compound stock; endogenous in cells
T6 sequence (O43791 whole entry, change not shown): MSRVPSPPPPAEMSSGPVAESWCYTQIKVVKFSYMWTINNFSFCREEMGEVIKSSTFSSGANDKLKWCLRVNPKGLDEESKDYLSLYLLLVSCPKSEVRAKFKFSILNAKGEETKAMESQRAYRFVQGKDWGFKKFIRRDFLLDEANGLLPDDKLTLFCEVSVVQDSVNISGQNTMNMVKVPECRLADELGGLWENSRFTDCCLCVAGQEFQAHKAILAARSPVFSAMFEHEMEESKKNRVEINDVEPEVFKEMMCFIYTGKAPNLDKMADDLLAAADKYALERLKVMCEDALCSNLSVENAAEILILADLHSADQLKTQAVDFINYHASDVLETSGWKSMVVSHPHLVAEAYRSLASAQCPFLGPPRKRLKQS
Description: as §1

The next assay addresses T7, UniProt Q9H0F6 (Homo sapiens, UniProt Q9H0F6).
T7 construct: 200 μL of lysate containing 5 mg/ml proteome was treated with 2 μL of 100× compound stock; endogenous in cells
Conditions: read-out: percent_inhibition.
Description: as §1

The next assay has as its target T8, UniProt Q7Z6J0 (Homo sapiens, UniProt Q7Z6J0).
T8 construct: 200 μL of lysate containing 5 mg/ml proteome was treated with 2 μL of 100× compound stock; endogenous in cells
T8 sequence (Q7Z6J0 1-888): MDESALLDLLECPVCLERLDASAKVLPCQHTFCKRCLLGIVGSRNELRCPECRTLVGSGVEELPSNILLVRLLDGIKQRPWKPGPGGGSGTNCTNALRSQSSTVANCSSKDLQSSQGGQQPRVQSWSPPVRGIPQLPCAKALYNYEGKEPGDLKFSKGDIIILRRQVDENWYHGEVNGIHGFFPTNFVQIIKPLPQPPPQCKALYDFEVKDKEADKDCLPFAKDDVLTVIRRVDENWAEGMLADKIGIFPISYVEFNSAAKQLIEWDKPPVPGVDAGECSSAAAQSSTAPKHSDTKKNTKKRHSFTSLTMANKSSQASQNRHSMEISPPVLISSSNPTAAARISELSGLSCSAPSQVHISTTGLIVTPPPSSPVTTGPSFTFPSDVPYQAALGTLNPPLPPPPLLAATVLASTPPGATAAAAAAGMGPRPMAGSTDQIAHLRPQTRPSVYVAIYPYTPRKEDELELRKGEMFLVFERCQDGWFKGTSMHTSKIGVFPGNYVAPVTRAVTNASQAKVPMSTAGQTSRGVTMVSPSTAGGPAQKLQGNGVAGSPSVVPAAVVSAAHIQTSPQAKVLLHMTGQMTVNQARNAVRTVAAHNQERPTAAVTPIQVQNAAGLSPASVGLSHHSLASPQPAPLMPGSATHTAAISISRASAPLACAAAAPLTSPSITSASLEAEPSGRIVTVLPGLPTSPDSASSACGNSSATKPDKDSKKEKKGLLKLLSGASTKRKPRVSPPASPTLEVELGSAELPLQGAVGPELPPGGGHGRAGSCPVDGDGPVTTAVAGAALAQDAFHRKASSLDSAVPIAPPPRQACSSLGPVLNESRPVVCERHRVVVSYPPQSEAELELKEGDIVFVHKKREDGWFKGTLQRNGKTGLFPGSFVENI
Conditions: for inhibition at 100 µM: read-out: percent_inhibition.
Description: as §1

A further assay concerns the target T9, UniProt Q8IY92 (Homo sapiens, UniProt Q8IY92).
T9 construct: 200 μL of lysate containing 5 mg/ml proteome was treated with 2 μL of 100× compound stock; endogenous in cells
Description: as §1

The target of a further assay is T10, UniProt Q9UJ41 (Homo sapiens, UniProt Q9UJ41).
T10 construct: 200 μL of lysate containing 5 mg/ml proteome was treated with 2 μL of 100× compound stock; endogenous in cells
T10 sequence (Q9UJ41 whole entry, change not shown): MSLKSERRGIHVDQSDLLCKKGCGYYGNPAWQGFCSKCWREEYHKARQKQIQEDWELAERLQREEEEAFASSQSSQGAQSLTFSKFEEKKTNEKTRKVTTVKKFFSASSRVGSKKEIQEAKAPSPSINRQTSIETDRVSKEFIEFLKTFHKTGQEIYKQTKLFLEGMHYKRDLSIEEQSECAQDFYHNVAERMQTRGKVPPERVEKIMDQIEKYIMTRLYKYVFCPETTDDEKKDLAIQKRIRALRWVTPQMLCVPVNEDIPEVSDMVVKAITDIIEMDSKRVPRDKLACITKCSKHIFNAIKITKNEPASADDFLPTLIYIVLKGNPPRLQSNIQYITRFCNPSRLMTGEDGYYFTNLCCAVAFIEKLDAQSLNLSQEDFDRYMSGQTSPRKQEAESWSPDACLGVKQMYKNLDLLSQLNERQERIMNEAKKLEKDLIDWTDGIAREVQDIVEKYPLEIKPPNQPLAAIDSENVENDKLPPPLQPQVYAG
Description: as §1

The mark [1] stands for this setting: 100 uM, read-out: KB02_100 uM_percent_inhibition.

T7 sequence (Q9H0F6 whole entry, change not shown): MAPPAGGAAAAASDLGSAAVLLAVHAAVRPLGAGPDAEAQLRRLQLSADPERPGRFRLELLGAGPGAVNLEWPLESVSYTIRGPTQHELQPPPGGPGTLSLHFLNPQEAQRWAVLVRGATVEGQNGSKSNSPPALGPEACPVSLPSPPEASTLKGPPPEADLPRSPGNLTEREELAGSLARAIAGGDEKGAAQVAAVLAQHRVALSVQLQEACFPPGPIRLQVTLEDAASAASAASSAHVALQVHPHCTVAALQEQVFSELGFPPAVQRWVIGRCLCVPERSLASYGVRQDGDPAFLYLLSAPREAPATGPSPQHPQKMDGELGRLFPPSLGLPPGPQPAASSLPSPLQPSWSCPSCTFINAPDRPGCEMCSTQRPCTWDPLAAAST
T9 sequence (Q8IY92 whole entry, change not shown): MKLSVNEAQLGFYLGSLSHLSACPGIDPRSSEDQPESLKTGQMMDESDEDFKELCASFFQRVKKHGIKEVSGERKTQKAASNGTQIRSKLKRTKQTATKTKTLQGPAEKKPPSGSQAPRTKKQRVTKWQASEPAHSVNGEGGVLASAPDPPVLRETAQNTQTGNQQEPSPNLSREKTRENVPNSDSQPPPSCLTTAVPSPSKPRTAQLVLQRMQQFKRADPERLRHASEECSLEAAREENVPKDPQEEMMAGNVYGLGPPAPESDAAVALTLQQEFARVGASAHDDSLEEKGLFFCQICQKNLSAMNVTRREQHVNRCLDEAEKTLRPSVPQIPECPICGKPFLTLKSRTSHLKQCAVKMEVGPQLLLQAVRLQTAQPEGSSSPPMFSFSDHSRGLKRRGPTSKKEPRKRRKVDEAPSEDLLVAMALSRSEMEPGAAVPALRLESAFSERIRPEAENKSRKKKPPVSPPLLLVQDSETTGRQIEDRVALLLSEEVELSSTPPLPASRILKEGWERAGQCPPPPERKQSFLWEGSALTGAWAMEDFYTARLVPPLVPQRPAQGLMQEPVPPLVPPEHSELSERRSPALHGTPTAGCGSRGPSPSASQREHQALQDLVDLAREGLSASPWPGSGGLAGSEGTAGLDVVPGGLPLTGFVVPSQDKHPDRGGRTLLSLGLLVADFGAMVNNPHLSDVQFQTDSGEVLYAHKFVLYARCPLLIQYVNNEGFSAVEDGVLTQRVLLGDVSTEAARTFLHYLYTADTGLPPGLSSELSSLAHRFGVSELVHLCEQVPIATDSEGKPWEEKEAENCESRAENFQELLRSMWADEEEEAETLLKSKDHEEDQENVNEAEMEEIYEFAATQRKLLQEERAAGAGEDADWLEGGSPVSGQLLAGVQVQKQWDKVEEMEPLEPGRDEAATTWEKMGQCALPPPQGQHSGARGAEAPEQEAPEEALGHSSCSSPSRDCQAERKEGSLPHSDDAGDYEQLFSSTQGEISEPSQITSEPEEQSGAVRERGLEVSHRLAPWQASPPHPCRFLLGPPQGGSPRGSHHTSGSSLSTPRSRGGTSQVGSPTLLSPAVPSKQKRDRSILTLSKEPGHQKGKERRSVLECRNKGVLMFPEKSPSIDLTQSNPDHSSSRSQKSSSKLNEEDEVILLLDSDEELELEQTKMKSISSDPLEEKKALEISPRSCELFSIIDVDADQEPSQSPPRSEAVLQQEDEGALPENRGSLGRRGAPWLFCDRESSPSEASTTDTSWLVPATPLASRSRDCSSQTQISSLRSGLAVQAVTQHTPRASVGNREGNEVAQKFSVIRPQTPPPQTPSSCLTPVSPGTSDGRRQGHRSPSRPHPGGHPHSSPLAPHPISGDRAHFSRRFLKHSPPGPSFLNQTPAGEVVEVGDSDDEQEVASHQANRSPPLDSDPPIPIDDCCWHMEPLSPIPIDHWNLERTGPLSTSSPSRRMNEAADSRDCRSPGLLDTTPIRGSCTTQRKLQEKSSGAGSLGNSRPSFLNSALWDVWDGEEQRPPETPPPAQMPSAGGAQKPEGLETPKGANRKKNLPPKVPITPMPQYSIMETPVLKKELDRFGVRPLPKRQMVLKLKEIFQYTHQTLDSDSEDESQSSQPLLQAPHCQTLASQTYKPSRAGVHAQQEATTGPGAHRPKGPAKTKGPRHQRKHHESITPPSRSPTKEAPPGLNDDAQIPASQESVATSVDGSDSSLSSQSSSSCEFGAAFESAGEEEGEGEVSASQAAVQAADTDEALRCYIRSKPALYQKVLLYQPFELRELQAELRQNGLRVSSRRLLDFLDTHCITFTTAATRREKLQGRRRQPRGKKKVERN
T3 sequence (Q96DX4 17-576, change not shown): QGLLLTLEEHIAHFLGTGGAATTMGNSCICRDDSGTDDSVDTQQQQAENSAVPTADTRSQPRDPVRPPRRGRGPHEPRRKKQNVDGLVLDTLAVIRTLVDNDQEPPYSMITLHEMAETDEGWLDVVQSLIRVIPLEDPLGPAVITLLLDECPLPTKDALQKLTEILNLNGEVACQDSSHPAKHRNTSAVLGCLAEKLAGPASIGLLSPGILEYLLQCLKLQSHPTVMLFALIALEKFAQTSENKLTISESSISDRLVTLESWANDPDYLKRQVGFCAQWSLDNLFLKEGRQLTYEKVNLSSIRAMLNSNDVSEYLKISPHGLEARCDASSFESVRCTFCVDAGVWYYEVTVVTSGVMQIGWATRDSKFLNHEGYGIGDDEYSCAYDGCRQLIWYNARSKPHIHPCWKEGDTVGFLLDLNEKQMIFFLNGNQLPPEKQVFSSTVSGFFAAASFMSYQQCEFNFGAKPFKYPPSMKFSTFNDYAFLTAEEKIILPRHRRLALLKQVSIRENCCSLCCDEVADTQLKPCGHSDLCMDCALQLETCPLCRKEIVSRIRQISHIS
T1 sequence (Q9NX47 whole entry, change not shown): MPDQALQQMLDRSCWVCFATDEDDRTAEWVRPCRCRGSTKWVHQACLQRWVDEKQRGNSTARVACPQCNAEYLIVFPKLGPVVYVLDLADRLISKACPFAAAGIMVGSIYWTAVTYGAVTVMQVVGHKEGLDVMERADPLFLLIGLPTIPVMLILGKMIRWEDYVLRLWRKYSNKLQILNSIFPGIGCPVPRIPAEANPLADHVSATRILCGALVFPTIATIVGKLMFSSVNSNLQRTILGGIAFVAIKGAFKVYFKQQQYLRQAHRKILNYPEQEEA

`COc1ccc2c(c1)CCCN2C(=O)CCl` [KB02]: the inhibition at 100 µM is 7% on UniProt Q9NX47 (read-out: percent inhibition); 1% at UniProt Q8TEL6 (setting [1]); 13% at UniProt P63208; 15% at UniProt Q495X7 (setting [1]); 49% at UniProt O43791 (read-out: percent_inhibition); 3% on UniProt Q9H0F6. In addition, the inhibition at 100 µM on UniProt Q7Z6J0 was determined as 42%. For the same compound, the inhibition at 500 µM at UniProt Q96DX4 is 17%; on UniProt Q495X7 (500 uM, read-out: KB02_500 uM_percent_inhibition) it was 44%. Also, the percent_inhibition on UniProt P63208 was found to be 18%.
In the case of `C=CC(=O)N(c1ccccc1)c1ccc(Br)cc1` [KB05], the “KB05_500 uM_percent_inhibition” value on UniProt Q8TEL6 (500 uM) turned out to be 61%. Further, the inhibition at 500 µM on UniProt Q8TEL6 (500 uM, read-out: KB05_500 uM_percent_inhibition) came out at 77%; on UniProt Q96DX4, 24%. Besides, the inhibition at 100 µM on UniProt Q8IY92 (read-out: percent_inhibition) was 10%; on UniProt P63208, 15%; on UniProt Q9H0F6, 25%; on UniProt Q9UJ41 (read-out: KB05_100 uM_percent_inhibition), 33%; on UniProt Q7Z6J0 it was 3%. Moreover, the percent_inhibition was found to be 14% at UniProt P63208 and 4% at UniProt Q7Z6J0 (100 uM).
On UniProt Q9NX47 (100 uM), `O=C(CCl)Nc1cc(C(F)(F)F)cc(C(F)(F)F)c1` [KBO3] came in with a percent inhibition of 30%. The percent_inhibition at UniProt Q8IY92 (100 uM) is on record as 8%; at UniProt O43791 (100 uM) it was 57%. Also, the “KB03_100 uM_percent_inhibition” value is on record as 27% at UniProt Q495X7 (100 uM) and 20% at UniProt Q9UJ41 (100 uM). The “KB03_500 uM_percent_inhibition” value on UniProt Q495X7 (500 uM) amounted to 43%.
